# Measurements published in US20240287138A1, “CYCLIC PEPTIDES FOR INHIBITING TNF RECEPTOR 1 ACTIVITY” (Merck Sharp & Dohme LLC, priority 2023, published 2024).
# Numbered stars: 1 amine (or outer) side, 2 acyl side, 3 side chain; on linkers, the order of the positions; unused ones are H or OH. Bridge positions count the residues as written; N and C are the ends. Square brackets hold non-standard residues; d marks the D form. Peptide text beside a SMILES is read from it. Trp(βS-Me,7-OMe) = COc1cccc2c([C@H](C)[C@H](N)C(=O)O)c[nH]c12; Phe(4-SO2NH2) = N[C@@H](Cc1ccc(S(N)(=O)=O)cc1)C(=O)O; X69 = O=C(O)C12CC(C[C@H](N[*:1])C(=O)[*:2])(C1)C2; Trp(7-CN) = N#Cc1cccc2c(C[C@H](N)C(=O)O)c[nH]c12; Trp(7-Cl) = N[C@@H](Cc1c[nH]c2c(Cl)cccc12)C(=O)O; Phe(4-CONH2) = NC(=O)c1ccc(C[C@H](N)C(=O)O)cc1; Phe(4-COOH) = N[C@@H](Cc1ccc(C(=O)O)cc1)C(=O)O; Trp(7-aza) = N[C@@H](Cc1c[nH]c2ncccc12)C(=O)O; Pip(5R-OH) = O=C(O)[C@@H]1CC[C@@H](O)CN1; X1 = O=C([C@@H]1CC[C@H](N[*:1])C1)[*:2]; Pro(4R-NH2) = N[C@H]1CN[C@H](C(=O)O)C1; X65 = O=C(CN(CC1(O)CC1)[*:1])[*:2]; 4Pal = N[C@@H](Cc1ccncc1)C(=O)O; NMeE = CN[C@@H](CCC(=O)O)C(=O)O; dHyp = O=C(O)[C@H]1C[C@H](O)CN1; dNMeE = CN[C@H](CCC(=O)O)C(=O)O; Pip = O=C(O)[C@@H]1CCCCN1; αMeS = C[C@](N)(CO)C(=O)O; Nle = CCCC[C@H](N)C(=O)O; Sar = CNCC(=O)O
# Target: T1, human soluble TNFR1 (sTNFR1) (Homo sapiens, UniProt P19438)
# T1 construct: made in house; host or cells: Sf21 (baculovirus)
# T1 sequence (P19438 with tags, fused parts or gaps): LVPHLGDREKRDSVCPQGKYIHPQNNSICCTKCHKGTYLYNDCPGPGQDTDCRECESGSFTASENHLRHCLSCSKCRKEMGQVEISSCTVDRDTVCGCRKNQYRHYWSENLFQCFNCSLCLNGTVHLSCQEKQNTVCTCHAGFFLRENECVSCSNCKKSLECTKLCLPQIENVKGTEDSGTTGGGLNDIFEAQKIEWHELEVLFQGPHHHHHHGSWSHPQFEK
# Test: Human sTNFR1-peptide displacement assay (LanthaScreen Eu TR-FRET binding assay)
# Conditions: not given
# Protocol: A. Procedure for Human sTNFR1-Peptide Displacement Assay
# The affinity was determined using LanthaScreen Eu-based time-resolved fluorescence resonance energy transfer (TR-FRET)-based binding assay.
# A TR-FRET assay measuring the displacement of biotinylated peptide SEQ ID NO. 1 from human soluble TNFR1 (sTNFR1) in a pre-formed complex by a macrocyclic peptide yields the affinity (Kd^app) of the cyclic peptide for sTNFR1. The reagents for the assay include: the C′-terminally 6His-tagged sTNFR1 (residues 1-211) protein purified from a Sf21 baculovirus expression system, the biotin-tagged B0372 peptide described in section “Preparation of Final Compounds”, part E, the LanthaScreen™ anti-His Tag Europium donor (Life Technologies Corporation (San Diego, CA), cat. #PV5597), and a streptavidin-conjugate Alexa Fluor™ 647 acceptor (Invitrogen (Waltham, MA), cat. #S32357). Time-resolved TR-FRET is achieved when sTNFR1 is bound to biotinylated peptide SEQ ID NO. 1 through coupling of the donor and acceptor FRET pair.
# 100 nM biotinylated peptide SEQ ID NO. […] 100 nM biotinylated peptide SEQ ID NO. 1 was chosen as it reflects the ˜Kd for this complex. After 30 min at ambient temperature, each test peptide (2 mM stock in DMSO) is titrated in a 20 point, ˜3-fold discrete dose-response using an acoustic-dispense liquid handler. Specifically, 80 nL of peptide/DMSO is transferred into a ProxiPlate-384 Plus 384-well assay plate (PerkinElmer, cat. #6008289). To this plate, 8 μL of the previously formed sTNFR 1-biotinylated peptide SEQ ID NO. 1 complex is added and allowed to reach binding equilibrium with the test peptide at ambient temperature for 90 min.
# The TR-FRET signal is measured with the following EnVision® settings: excitation laser at 337 nm; emission1=615 nm, emission2=665 nm, LANCE/DELFIA dichroic mirror, delay time=[…]. The signal of each well is determined as the ratio of the emission at 665 nm to that at 615 nm. Percent displacement is determined by normalization to control wells containing DMSO (0%) or a saturating concentration of a displaceable peptide (100%). The %-effect as a function of peptide concentration is fit to a five-parameter logistic fit based on the Morrison equation to account for tight binding kinetics.
row,SMILES,Kd
1,"CCCC[C@@H]1NC(=O)CSC[C@@H](C(N)=O)NC(=O)[C@H]([C@@H](C)c2c[nH]c3c(OC)cccc23)NC(=O)CN(C)C(=O)[C@H](Cc2ccc(O)cc2)NC(=O)[C@H](Cc2ccc(C(=O)O)cc2)NC(=O)[C@](C)(CO)NC(=O)[C@H](Cc2c[nH]c3c(Cl)cccc23)NC(=O)[C@H](Cc2ccncc2)NC(=O)[C@H](CC(N)=O)NC(=O)CN(CC2(O)CC2)C(=O)[C@H](Cc2c[nH]c3ccccc23)NC(=O)[C@@H]2CCCCN2C(=O)[C@H](Cc2ccncc2)NC1=O [SEQ ID NO. 13] ({CH2CO}-[Nle][4Pal][Pip]W[X65]N[4Pal][Trp(7-Cl)][αMeS][Phe(4-COOH)]Y[Sar][Trp(βS-Me,7-OMe)]C-NH2; thioether N-14)",1 nM
2,"CCCC[C@@H]1NC(=O)[C@@H]2CC[C@@H](C2)NC(=O)[C@H]([C@@H](C)c2c[nH]c3c(OC)cccc23)NC(=O)CN(C)C(=O)[C@H](Cc2ccc(C(N)=O)cc2)NC(=O)[C@H](Cc2ccc(C(N)=O)cc2)NC(=O)[C@](C)(CO)NC(=O)[C@H](Cc2c[nH]c3c(C#N)cccc23)NC(=O)[C@H](CC23CC(C(=O)O)(C2)C3)NC(=O)[C@H](CC(N)=O)NC(=O)[C@H]2C[C@H](O)CN2C(=O)[C@H](Cc2c[nH]c3ncccc23)NC(=O)[C@@H]2CC[C@@H](O)CN2C(=O)[C@H](Cc2ccncc2)NC1=O [SEQ ID NO. 26] (cyclo([4Pal][Pip(5R-OH)][Trp(7-aza)][dHyp]N[X69][Trp(7-CN)][αMeS][Phe(4-CONH2)][Phe(4-CONH2)][Sar][Trp(βS-Me,7-OMe)][X1][Nle]))",0.24 nM

# Target: T2, TNFα-induced NF-κB signal transduction pathway (TNFR1 signaling) in THP-1 cells (Homo sapiens, UniProt P19438)
# T2 sequence (P19438 30-455): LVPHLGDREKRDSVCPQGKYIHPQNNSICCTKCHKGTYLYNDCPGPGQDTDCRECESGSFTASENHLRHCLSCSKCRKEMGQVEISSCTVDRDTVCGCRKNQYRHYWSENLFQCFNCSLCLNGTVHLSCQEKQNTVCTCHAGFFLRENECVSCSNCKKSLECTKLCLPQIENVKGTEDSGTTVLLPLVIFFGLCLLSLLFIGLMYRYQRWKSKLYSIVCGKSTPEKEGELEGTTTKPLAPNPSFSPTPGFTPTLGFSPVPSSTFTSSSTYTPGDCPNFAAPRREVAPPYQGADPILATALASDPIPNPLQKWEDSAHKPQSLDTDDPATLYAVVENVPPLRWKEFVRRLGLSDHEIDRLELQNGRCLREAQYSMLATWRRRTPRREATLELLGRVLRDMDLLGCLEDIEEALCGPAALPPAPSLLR
# Test: THP-1 Lucia NF-κB reporter cell assay, inhibition of TNFα-induced NF-κB signaling
# Assay type: cell-based
# Conditions: THP-1 NF-κB Lucia reporter cells, 10 ng/mL TNFα, 16-18 h, secreted luciferase; read-out: THP-1 IC50
# Protocol: C. Procedure for THP-1 Lucia NF-κB cells
# The inhibition of TNFα-induced NF-κB signal transduction pathways was evaluated in THP-1 cells. THP-1 cells harboring NF-κB-inducible Lucia™ reporter gene (InvivoGen, cat. #thp1-nfkb) designed for monitoring NF-κB signal transduction pathway was employed to assess the inhibitory effect macrocyclic peptides on TNFR1 signaling. The cells were cultured in media containing RPMI 1640, 2 mM L-glutamine, 25 mM HEPES, 10% heat-inactivated fetal bovine serum with appropriate selection antibiotics. Assays were performed in media that was devoid of selection antibiotics. For profiling, 125 nL of peptides in DMSO (10 mM) were dispensed into Falcon® 384-well Optilux white/clear flat bottom TC-treated microtest microplate (Corning, cat. #353963) using Echo® 555. […] A suspension of 1 million cells/mL was dispensed at 20 μL/well in a 384-well plate to a density of 20,000 cells/well and pre-incubated with peptides at 37° C. for 1 h. Subsequently, 5 μL of TNF containing media (recombinant human TNFα; R&D Systems USA, cat. #210-TA-005/CF) or TNF-free media (for controls) was added to the wells. The final concentration of TNFα in the assay in 10 ng/mL. After o.n. incubation at 37° C. (16-18 h), 5 μL of supernatant was aspirated and transferred to a 384-well microplate (PerkinElmer, cat. #6007680) for measurement of secreted luciferase activity with 25 μL of QUANTI-Luc™ luminescence assay reagent (InvivoGen, cat. #rep-qlc1) in each well. The luminescence was measured in EnVision® Multimode Plate Reader (PerkinElmer). Dose response curves were analyzed using a 4-parameter logistic model to calculate IC50 values, reported in Table 2, using TIBCO® Spotfire® software employing appropriate Minimum and Maximum controls.
row,SMILES,IC50
1,"CCCC[C@@H]1NC(=O)CSC[C@@H](C(N)=O)NC(=O)[C@H]([C@@H](C)c2c[nH]c3c(OC)cccc23)NC(=O)CN(C)C(=O)[C@H](Cc2ccc(O)cc2)NC(=O)[C@H](Cc2ccc(C(=O)O)cc2)NC(=O)[C@](C)(CO)NC(=O)[C@H](Cc2c[nH]c3c(Cl)cccc23)NC(=O)[C@H](Cc2ccncc2)NC(=O)[C@H](CC(N)=O)NC(=O)[C@H](CCC(=O)O)N(C)C(=O)[C@H](Cc2c[nH]c3ncccc23)NC(=O)[C@@H]2C[C@@H](N)CN2C(=O)[C@H](Cc2ccncc2)NC1=O [SEQ ID NO. 125] ({CH2CO}-[Nle][4Pal][Pro(4R-NH2)][Trp(7-aza)][NMeE]N[4Pal][Trp(7-Cl)][αMeS][Phe(4-COOH)]Y[Sar][Trp(βS-Me,7-OMe)]C-NH2; thioether N-14)",4.1 nM
2,"CCCC[C@@H]1NC(=O)[C@@H]2CC[C@@H](C2)NC(=O)[C@H]([C@@H](C)c2c[nH]c3c(OC)cccc23)NC(=O)CN(C)C(=O)[C@H](Cc2ccc(C(=O)O)cc2)NC(=O)[C@H](Cc2ccc(C(N)=O)cc2)NC(=O)[C@](C)(CO)NC(=O)[C@H](Cc2c[nH]c3c(C#N)cccc23)NC(=O)[C@H](Cc2ccc(S(N)(=O)=O)cc2)NC(=O)[C@H](CC(N)=O)NC(=O)[C@@H](CCC(=O)O)N(C)C(=O)[C@H](Cc2c[nH]c3ncccc23)NC(=O)[C@@H]2CC[C@@H](O)CN2C(=O)[C@H](Cc2ccncc2)NC1=O [SEQ ID NO. 133] (cyclo([4Pal][Pip(5R-OH)][Trp(7-aza)][dNMeE]N[Phe(4-SO2NH2)][Trp(7-CN)][αMeS][Phe(4-CONH2)][Phe(4-COOH)][Sar][Trp(βS-Me,7-OMe)][X1][Nle]))",1.4 nM
